The text below walks through data of PubChem BioAssay (NCI).

“And” between values parts separate entries of the source, which are not always exact repeats. Equal entries are not always repeated.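 Values below derive from 48-hour exposures of cells grown in 96-well plates, with endpoints linearly interpolated between the two concentrations bracketing the appropriate inhibition level. At the GI50, growth is halved. TGI: concentration producing complete growth inhibition.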

Test systems include SK-MEL-28 melanoma; MALME-3M melanoma; NCI/ADR-RES ovarian; NCI-H23 lung; OVCAR-3 ovarian; SR leukemia; NCI-H522 lung; HCC-2998 colon; HL-60(TB) leukemia; TK-10 renal.
What all share (experiment): inhibition of tumour cell growth, NCI panel, 48 h

For `O=C(Nc1cccc(-n2cc(-c3ccncc3)c(-c3cc(O)cc(Cl)c3)n2)c1)c1cc(C(F)(F)F)cc(C(F)(F)F)c1`, the GI50 in the test with SK-MEL-28 melanoma is 4.71 µM; in the test on MALME-3M melanoma it was 3.69 µM; in the test with NCI/ADR-RES ovarian, 4.55 µM; with NCI-H23 lung, 4.16 µM; in the test with OVCAR-3 ovarian, 3.28 µM; in the test with SR leukemia, 1.61 µM. The GI50 with NCI-H522 lung is 1.6 µM; with HCC-2998 colon, 3.12 µM. Besides, the TGI in the test with SK-MEL-28 melanoma is 85.3 µM; in the test with MALME-3M melanoma it was 94.4 µM; with NCI/ADR-RES ovarian, > 100 µM; in the test on NCI-H23 lung, 46.5 µM; in the test on OVCAR-3 ovarian, 25.7 µM; with SR leukemia, 5.01 µM. For the same molecule, the TGI in the test on NCI-H522 lung was determined as 8.37 µM; with HCC-2998 colon it was 11.6 µM.

For the molecule `Cc1cc(N=Nc2ccccc2C)ccc1N`, the GI50 in the test on HL-60(TB) leukemia is 0.486 µM; with MALME-3M melanoma, 16.2 µM; in the test on NCI/ADR-RES ovarian, 13.7 µM; in the test on TK-10 renal, 15.5 µM; with NCI-H23 lung, 16.5 µM; in the test with SR leukemia, 8.49 µM. The GI50 in the test on NCI-H522 lung is 6.94 µM; with HCC-2998 colon, 22 µM. The TGI was 44.3 µM in the test on SK-MEL-28 melanoma; 38.6 µM and 39 µM with MALME-3M melanoma; 25 µM and 43.2 µM in the test with NCI/ADR-RES ovarian; 49.3 µM and 72 µM in the test with TK-10 renal; 14.7 µM and 42.3 µM with NCI-H23 lung; 21.8 µM and 23.7 µM with OVCAR-3 ovarian. Further, the TGI in the test with SR leukemia was 52.1 µM and 61.6 µM; with NCI-H522 lung, 22.9 µM; in the test on HCC-2998 colon, 24.9 µM and 53.5 µM.

Consider `C(=N/N(Cc1ccccc1)Cc1ccccc1)/c1ccccc1`, for which the GI50 was > 100 µM in the test on SK-MEL-28 melanoma; 41.1 µM in the test with MALME-3M melanoma; > 100 µM with NCI/ADR-RES ovarian; > 100 µM in the test with TK-10 renal; 90.8 µM in the test with NCI-H23 lung; > 100 µM in the test with OVCAR-3 ovarian. Besides, the GI50 in the test on NCI-H522 lung and with HCC-2998 colon was > 100 µM each time. For the same molecule, the TGI in the test with SK-MEL-28 melanoma, in the test on MALME-3M melanoma, with NCI/ADR-RES ovarian, in the test with TK-10 renal, in the test with NCI-H23 lung and in the test with OVCAR-3 ovarian was > 100 µM throughout. The TGI in the test with NCI-H522 lung and in the test on HCC-2998 colon was > 100 µM throughout.

`C/C(=C\c1cnc(C)s1)[C@@H]1C[C@@H]2O[C@@H]2CCC[C@H](C)[C@H](O)[C@@H](C)C(=O)C(C)(C)[C@@H](O)CC(=O)O1`: the GI50 in the test on SK-MEL-28 melanoma was > 100 µM; in the test with NCI/ADR-RES ovarian it was 0.0228 µM; in the test on TK-10 renal, 0.936 µM; in the test with NCI-H23 lung, < 0.01 µM; in the test with OVCAR-3 ovarian, < 0.01 µM; with SR leukemia, < 0.01 µM. Further, the GI50 in the test with HCC-2998 colon was 0.0103 µM. The TGI in the test with SK-MEL-28 melanoma, in the test on NCI/ADR-RES ovarian, in the test with TK-10 renal, with NCI-H23 lung, in the test on OVCAR-3 ovarian and with SR leukemia was > 100 µM each time. The TGI in the test on HCC-2998 colon is > 100 µM.

As to `COc1ncnc(NS(=O)(=O)c2ccc(N=C3C(=O)N(CN4CCN(c5c(F)cc6c(=O)c(C(=O)O)cn(C7CC7)c6c5OC)CC4C)c4ccc(Br)cc43)cc2)c1OC` (stereo not given), the GI50 with HL-60(TB) leukemia was 8.4 µM; in the test with SK-MEL-28 melanoma it was > 50 µM; with NCI/ADR-RES ovarian, 7.06 µM; in the test on TK-10 renal, 2.47 µM; in the test on NCI-H23 lung it was 8.79 µM; with OVCAR-3 ovarian it was 7.52 µM. For the same molecule, the GI50 is 42.7 µM in the test on SR leukemia and 31 µM in the test on NCI-H522 lung. Further, the TGI was > 50 µM in the test on HL-60(TB) leukemia; > 50 µM with SK-MEL-28 melanoma; > 50 µM with NCI/ADR-RES ovarian; > 50 µM in the test with TK-10 renal; 27 µM in the test on NCI-H23 lung; 40.7 µM in the test with OVCAR-3 ovarian. For the same molecule, the TGI with SR leukemia and in the test with NCI-H522 lung was > 50 µM each time.

For the molecule `COc1cc2c(cc1OC)-c1ncc3c(OC)c(OC)c(OC)cc3c1C2`, the GI50 in the test with HL-60(TB) leukemia was 10.2 µM; with SK-MEL-28 melanoma, > 100 µM; in the test on NCI/ADR-RES ovarian, 13.4 µM; in the test with TK-10 renal it was 18.9 µM; with OVCAR-3 ovarian, 0.529 µM; with SR leukemia, 0.609 µM. For the same molecule, the GI50 in the test on HCC-2998 colon is 47.7 µM. Moreover, the TGI in the test on HL-60(TB) leukemia is > 100 µM; in the test with SK-MEL-28 melanoma, > 100 µM; in the test on NCI/ADR-RES ovarian, 45 µM; in the test with TK-10 renal, 50.4 µM; with OVCAR-3 ovarian, 9.91 µM; in the test on SR leukemia, 2.47 µM. Also, in the test on HCC-2998 colon, the TGI is > 100 µM.

Consider `Cc1ccc(/C(C#N)=C/c2cccc([N+](=O)[O-])c2)cc1`, for which the TGI with SK-MEL-28 melanoma, with MALME-3M melanoma, in the test with NCI/ADR-RES ovarian, in the test on TK-10 renal, in the test on NCI-H23 lung and with OVCAR-3 ovarian was > 100 µM each time. Also, the TGI in the test on SR leukemia, with NCI-H522 lung and in the test with HCC-2998 colon was > 100 µM in each case.

In the case of `O=[N+]([O-])c1ccc(N2CCOCC2)c2c1no[n+]2[O-]`, the GI50 in the test with HL-60(TB) leukemia was 0.632 µM; in the test with SK-MEL-28 melanoma it was 4.32 µM; in the test with MALME-3M melanoma, 1.52 µM; in the test on NCI/ADR-RES ovarian it was 1.54 µM; in the test with TK-10 renal, 3.85 µM; with NCI-H23 lung, 1.08 µM. Further, the GI50 was 1.4 µM in the test on OVCAR-3 ovarian, 0.649 µM with NCI-H522 lung and 1.53 µM with HCC-2998 colon. Moreover, the TGI came out at 2.52 µM in the test with HL-60(TB) leukemia; 16 µM in the test with SK-MEL-28 melanoma; 4.28 µM in the test on MALME-3M melanoma; 12.3 µM in the test on NCI/ADR-RES ovarian; 16.7 µM with TK-10 renal; 4.83 µM in the test with NCI-H23 lung. Further, the TGI in the test on OVCAR-3 ovarian was 3.15 µM; in the test with NCI-H522 lung, 2.33 µM; in the test on HCC-2998 colon, 7.25 µM.
